Test results: patent US8629154B2, “Substituted cycloalcano[e and d] pyrazolo [1,5-a]pyrimidines/antagonists of serotonin 5-HT6 receptors and methods for production and the use thereof” (priority 2008, dated 2014)

Key:
5-HT6 receptor [1] = target: T1, 5-HT6 receptor (Homo sapiens (Human), UniProt P50406); assay: Competitive radioligand binding ([3H] Lysergic acid diethylamide) to membranes of HeLa cells expressing 5-HT6 receptor; settings: 1.5 nM [3H] Lysergic acid diethylamide, HeLa cell membranes; for IC50: read-out: IC50 of serotonin 5-HT6 receptor inhibition in the setting of competitive binding; for Ki: read-out: Ki of serotonin 5-HT6 receptor inhibition in the setting of competitive binding
T1 sequence (P50406 whole entry): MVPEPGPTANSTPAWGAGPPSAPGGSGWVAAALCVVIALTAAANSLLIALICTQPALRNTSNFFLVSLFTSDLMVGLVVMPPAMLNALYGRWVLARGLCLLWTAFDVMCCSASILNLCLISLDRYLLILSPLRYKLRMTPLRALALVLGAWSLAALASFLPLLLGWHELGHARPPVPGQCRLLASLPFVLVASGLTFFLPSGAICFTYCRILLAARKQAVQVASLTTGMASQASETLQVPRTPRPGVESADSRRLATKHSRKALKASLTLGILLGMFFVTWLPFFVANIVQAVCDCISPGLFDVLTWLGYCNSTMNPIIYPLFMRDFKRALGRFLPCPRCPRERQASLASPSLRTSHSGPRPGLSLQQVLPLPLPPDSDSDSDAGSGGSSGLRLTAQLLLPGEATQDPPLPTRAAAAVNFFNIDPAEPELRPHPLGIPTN
Procedure: Activity determination of serotonin 5-HT6 receptor antagonists of the general formula 1 in the setting of competitive binding to serotonin 5-HT6 receptors.
Screening of disclosed compounds for their potential ability to interact with serotonin 5-HT6 receptors was carried out by method of radioligand binding. For this purpose membrane species were prepared from HeLa cells expressing recombinant human 5-HT6 receptor by means of their homogenization in glass homogenizer with subsequent separation of plasmatic membranes from cell nucli, mitochondria's and cell wreckages by differential centrifugation. Determination of tested compounds binding with 5-HT6 receptors was carried out according to the method described in [Monsma F J Jr, Shen Y, Ward R P, Hamblin M W and Sibley D R, Cloning and expression of a novel serotonin receptor with high affinity for tricyclic psychotropic drugs. Mol. Pharmacol. 43:320-327, 1993]. In the preferred embodiment membrane preparations were incubated with radioligand (1.5 nM [^3H] Lysergic acid diethylamide) without and in the presence of investigated compounds for […] at 37° C. in medium consisting of […], pH 7.4, 150 mM NaCl, 2 mM Ascorbic Acid, 0.001% BSA. After incubation the samples were filtered in vacuo on glass-microfiber filters G/F (Millipor, USA), filters were washed three times with cold solution of medium and radioactivity was measured by scintillation counter MicroBeta 340 (PerkinElmer, USA). Nonspecific binding which made up 30% of overall binding was determined by incubation of membrane preparations with radioligand in the presence of 5 μM Serotonin (5-HT). Methiothepin was used as positive control. Binding of tested compounds with the receptor was determined by their ability to displace the radioligand and expressed in percent of displacement. The percent of displacement was calculated according to the following equation:
[formula] wherein: TA—was overall radioactivity in presence of radioligand only, CA—was radioactivity in presence of radioligand and tested compound and NA—was radioactivity in presence of radioligand and Serotonin (5 μM).

5-HT6 receptor [2] = target: T1, 5-HT6 receptor; assay: Functional assay: inhibition of serotonin-induced intracellular cAMP (LANCE cAMP) in HEK 293 cells expressing 5-HT6 receptor; assay type: cell-based; settings: read-out: IC50 of serotonin 5-HT6 receptor inhibition in the setting of functional assay
Procedure: Determination of antagonistic activity of compounds of general formulas 1 and 2 towards 5-HT6 receptors. Compounds of general formulas 1 and 2 were tested for their ability to prevent 5-HT6 receptors activation by serotonin. HEK 293 cells (cells of human embryo's kidney) with artificially expressed 5-HT6 receptor, activation of which by serotonin leads to increasing the concentration of intracellular cAMP were used. The content of intracellular cAMP was determined using reagent kit LANCE cAMP (PerkinElmer) according to the method described by the manufacturer of the kit [http://las.perkinelmer.com/content/Manuals/MAN_LANCEcAMP384KitUser.pdf].
Effectiveness of compounds was estimated by their ability to reduce the content of intracellular cAMP induced by serotonin.

mice [3] = assay: Mice Behavior in the Elevated Plus Maze; assay type: in vivo
Text: Anxiolytic (tranquilizing) action of compounds of general formulas 1 and 2 in the test “Mice Behavior in the Elevated Plus Maze”. The length of each arm in the labyrinth is 30 cm, the width is 5 cm, and the height of walls is 15 cm. Two opposite arms are closed from sides and end faces by transparent walls, the other two arms are lit and opened. A mouse was placed in the center of maze and for the next five minutes the number of entries the opened and closed arms and the time spent in each type of arms was registered. […] The animals usually avoid the open arms (the preference index is between 0.2 and 0.3). Compounds with tranquilizing action increase this index up to 0.5-0.6 or even more and reduce the number of defecations without changing the overall motion activity of the mice (the total number of their entries to the arms).

mice [4] = assay: Passive Avoidance of mice in the Shuttle Chamber, memory disturbed by MK-801; assay type: in vivo; settings: MK-801 0.1 mg/kg, 30 minutes before training
Procedure: A shuttle chamber (Ugo Basile, Italy) consisted of two sections was used. The walls of one section were opaque while the second section had transparent cover. The sections were connected through a hole which could be overlapped by vertical door. The floor was made of transverse metal bars on which DC current impulses could be fed. Experiments were carried out in aged male mice of BALB/c line weighing 20-24 grams.
On the first day of experiment 30 minutes before training mice were injected […] with physiological solutions of Scopolamine (0.3 mg/kg) or Scopolamine in combination with active ingredient 1.2(3). Each group consisted of at least 8 animals. Animals were placed in light section, and latent period of the first entry into dark chamber was registered. Then vertical door was closed and the animal was punished by 0.6 mA DC current for 3 seconds. After that the animal was returned to its living cage. In 22-24 hours the same animal was placed again in light section of the shuttle chamber and the latent period of its first entry into the dark section, the total time of its stay in the light section and the number of entries into the dark section was registered. Each monitoring lasted for 5 minutes.
The experiment was carried out as in example 7. […]

[5] = system: aged male mice of BALB/c line; assay: Passive Avoidance of mice in the Shuttle Chamber, memory disturbed by Scopolamine; assay type: in vivo; settings: Scopolamine 0.3 mg/kg, 30 minutes before training
Procedure: A shuttle chamber (Ugo Basile, Italy) consisted of two sections was used. The walls of one section were opaque while the second section had transparent cover. The sections were connected through a hole which could be overlapped by vertical door. The floor was made of transverse metal bars on which DC current impulses could be fed. Experiments were carried out in aged male mice of BALB/c line weighing 20-24 grams. On the first day of experiment 30 minutes before training mice were injected […] with physiological solutions of Scopolamine (0.3 mg/kg) or Scopolamine in combination with active ingredient 1.2(3). Each group consisted of at least 8 animals. Animals were placed in light section, and latent period of the first entry into dark chamber was registered. Then vertical door was closed and the animal was punished by 0.6 mA DC current for 3 seconds. After that the animal was returned to its living cage. In 22-24 hours the same animal was placed again in light section of the shuttle chamber and the latent period of its first entry into the dark section, the total time of its stay in the light section and the number of entries into the dark section was registered. Each monitoring lasted for 5 minutes. The experiment was carried out during the day time in isolated laboratory using white noise at level of about 70 decibel above human hearing threshold. […]

Row | SMILES | IC50 (5-HT6 receptor [1]) | Ki (5-HT6 receptor [1]) | IC50 (5-HT6 receptor [2]) | Anxiolytic (tranquilizing) action (mice [3]) | Nootropic action (enhancement of memory disturbed by MK-801) (mice [4]) | Nootropic action (enhancement of memory disturbed by Scopolamine) [5]
1 | CSc1nn2c3c(cnc2c1S(=O)(=O)c1ccccc1)CCC3 [1.1(1), 2-methylsulfanyl-3-(phenylsulfonyl)-7,8-dihydro-6H-cyclopenta[e]pyrazolo[1,5-a]pyrimidine] | 0.986 nM | 0.458 nM | 27 nM | – | – | –
2 | CSc1nn2c3c(cnc2c1S(=O)(=O)c1ccccc1)CCCC3 [1.2(1), 2-methylsulfanyl-3-(phenylsulfonyl)-6,7,8,9-tetrahydrocyclohexa[e]pyrazolo[1,5-a]pyrimidine] | 1.18 nM | 0.549 nM | 35 nM | – | – | –
3 | CSc1nn2c3c(c(C)nc2c1S(=O)(=O)c1ccccc1)CCCC3 [1.2(3), 5-methyl-2-methylsulfanyl-3-(phenylsulfonyl)-6,7,8,9-tetrahydrocyclohexa[e]pyrazolo[1,5-a]pyrimidine] | 0.948 nM | 0.44 nM | 32 nM | exhibits an anxiolytic (tranquilizing) action which is comparable with the activity of Buspirone and Lorasepam | produce nootropic effect | confirm nootropic action
4 | CSc1nn2cc3c(nc2c1S(=O)(=O)c1ccccc1)CCCC3 [2(1)] | 17.2 nM | 7.97 nM | 479 nM | – | – | –
5 | CSc1nn2c(C)c3c(nc2c1S(=O)(=O)c1ccccc1)CCCC3 [2(2)] | 1.46 nM | 0.68 nM | 7.8 nM | – | – | –
